Results on 2 compounds are retold here after patent US20260231913A1, “CANCER MODEL ANIMAL AND METHOD FOR PRODUCING SAME” (ORBIO Corporation, priority 2023, published 2026).

The subject of this assay is insulinoma cells MIN 6 cultured with L-glucose. The assay can be described thus: Screening of substances that have anticancer effect in mice with intraperitoneally transplanted, L-glucose-cultured insulinoma cells MIN6. Type of assay: in vivo, mouse. How it is done:
Not only human cancer cells A549 but also mouse insulinoma cells MIN6 can be successfully cultured with the L-glucose medium. Mouse insulinoma cells MIN6 were cultured with the D-glucose medium. At a stage where the cells proliferated sufficiently, the medium was changed to the L-glucose medium. Subsequently, the medium change was performed frequently over 2 to 3 days. After almost all dead cells were confirmed to be removed, half the amount of the medium was changed every other day. The MIN6 cells were passaged once or twice using the L-glucose medium. After the culture for 8 to 11 days, the MIN 6 cells were trypsinized to form a cell suspension, which was transplanted at 5×10^6 cells (100 μL)/mouse subcutaneously into the right thigh of mice or at 1.0×10^5 cells (20 μL)/mouse into the abdominal cavity of mice without using Matrigel. As a control, MIN6 cells cultured with the normal D-glucose medium were also transplanted into mice. Because of rapid growth in the D-glucose medium, MIN6 cells were cultured with the D-glucose medium for 6 to 7 days and then transplanted at the same density as that of L-glucose-cultured cells subcutaneously into the right thigh of mice.
A method of screening substances that have anticancer effect was examined using, as a test substance, 2-deoxy-2-(2-oxo-2H-chromen-7-yl) amino-L-glucose (hereinafter referred to as “CLG”) (Japanese Patent No. 6566348), which is a molecule having a 7-OH-cuoumarin moiety bonded to L-glucose via a nitrogen atom.
On day 0, insulinoma cells MIN 6 cultured with L-glucose were intraperitoneally transplanted into 32 mice (four groups each including 8 mice). On day 1, the following groups were prepared: • 8 mice that were intraperitoneally administered every day until day 4 (over 4 minimum days) with a saline solution of CLG at a concentration of 53 mg/kg expected to be safe (CLG administration group); • 8 mice that were intraperitoneally administered only with a CLG-free saline every day until day 7 (over 7 days) (saline administration group); and • 8 mice that were intraperitoneally administered every day until day 7 (over 7 days) with 5-FU (which is used as a standard treatment for pancreatic cancer in Japan and the Europe and also used for treatment of neuroendocrine tumors such as insulinoma) at a high concentration of 25 mg/kg acceptable for nude mice (5-FU administration group).
All mice were euthanized at month 5 and subjected to pathological autopsy.

“Also recorded” adds a separate entry of the source.

For “2-deoxy-2-(2-oxo-2H-chromen-7-yl) amino-L-glucose [CLG]”, the “share of mice with normal blood sugar levels and no tumor” value (8 mice, 53 mg/kg intraperitoneally, day 1 to day 4, month 5) stood at 50%. Further, where the note is “administered only for 4 days”, the “overall anticancer effect in vivo” value is “significant effect in vivo”. For the same compound, the “mice that maintained normal blood sugar levels until the final euthanasia, with no tumor on dissection” value (of the 8 mice, 53 mg/kg intraperitoneally every day, day 1 to day 4, euthanasia at month 5) is 4 mice. For the setting “of the 8 mice, pathological examination of whole-body sections”, the “mice with a malignant tumor classifiable as neuroendocrine carcinoma (NEC) in the abdominal cavity” value is given as “one”. The “onset of reduction in blood sugar level compared with the saline administration group” value (remaining 4 of the 8 mice) is recorded as “one week later”. Besides, the “necrosis of the intraperitoneal tumor” value (the one mouse with a malignant tumor) was “at least 90%”.

With `O=c1[nH]cc(F)c(=O)[nH]1` [5-FU, reference compound], where the note is “25 mg/kg intraperitoneally every day, day 1 to day 7, 8 mice”, the “pathological finding in individual mice” value is recorded as “large, highly-atypical, significant liver metastasis with high malignancy; also recorded: invasive cancer in the smooth muscle around the transverse colon”. Also, the “mice likely to have worsened conditions, dissected on day 10 and each found to have a tumor” value (25 mg/kg intraperitoneally every day, day 1 to day 7, of 8 mice, day 10) is given as 3 mice.
